# From US20230043678A1, “USE OF 5-METHYLTETRAHYDROFOLATE” (priority 2019, published 2023)
# Columns and labels:
# fetal rat heart = test: Effect of folic acid on fetal rat heart under pharmacological dose (Example 9); format: in vivo, rats
# Procedure: In order to investigate an effect of folic acid on fetal rat heart under pharmacological dose, 6 folic acid groups and a blank control group were divided in the experiment, the folic acid groups were divided into a folic acid group 1 (4.555 mg/kg/d), a folic acid group 2 (2.2775 mg/kg/d), a folic acid group 3 (0.911 mg/kg/d), a folic acid group 4 (0.4555 mg/kg/d), a folic acid group 5 (0.22775 mg/kg/d) and a folic acid group 6 (0.113875 mg/kg/d). The folic acid groups and the blank control group consisted of 4 pregnant mice each. The pregnant mice in the folic acid group 1 (4.555 mg/kg/d), the folic acid group 2 (2.2775 mg/kg/d) and the folic acid group 3 (0.911 mg/kg/d) were intraperitoneally injected, the pregnant mice in the folic acid group 4 (0.4555 mg/kg/d), the folic acid group 5 (0.22775 mg/kg/d) and the folic acid group 6 (0.113875 mg/kg/d) were intragastrically administrated, and the pregnant mice in the blank control group were naturally fed. After the female rats were administrated for 7 days, male and female rats were mated in a cage at a ratio of 1:1 overnight, a vaginal plug was checked the next morning, a day when the vaginal plug was found was regarded as day 0 of pregnancy, the pregnant mice were separately fed and administrated for 21 consecutive days, a fetus was obtained by cesarean section, and the number of fetal rats in each group was shown in FIG. 30. Fetal rat hearts were taken for a pathological examination and the results were as follows.
# [1] = tested on: transcription factors (Nkx2.5, amhc, vmhc, hand2, has2, mef2a, mef2c, bmp2b, ephrinB2, ephB4) in zebrafish embryos; test: qRT-PCR expression of transcription factors during development of zebrafish embryos (Example 4); format: in vivo; conditions: 8 mM FA
# Procedure: In order to explore an effect of folic acid on epigenetics during development of the zebrafish embryos, the zebrafish embryos at different developmental stages were collected for testing. […] A fluorescent dye SYBR Green was used in the qRT-PCR experiment. The qRT-PCR was conducted according to the instructions of an SYBR Green qPCR Master Mix kit and a detection was conducted on an ABI (HT 7900) PCR instrument. […] An expression of β-actin was used as an internal reference and relative expression levels of other genes were calculated by a ΔΔCt method.
# heart of fetal mice = test: Effects of folic acid and 5-methyltetrahydrofolate on heart development of fetal/neonatal mice, histology (Example 10); conditions: mouse, in vivo
# Procedure: (§1) 75 7-week-old female C57BL/6J mice and 25 8-week-old male C57BL/6J mice were provided by Shanghai Lingchang Biotechnology Co., Ltd. with a certificate number of SCXK (Shanghai) 2018-0003. […] The female mice were randomly divided into 5 groups according to body weight: a solvent control group, a folic acid (151.66 μg/kg) group, a folic acid (303.32 μg/kg) group, a calcium 5-methyltetrahydrofolate (converted to folic acid, 151.66 μg/kg) group and a calcium 5-methyl tetrahydrofolate (converted to folic acid, 303.32 μg/kg) group. 1.1275 unit mass of the calcium 5-methyltetrahydrofolate equaled to 1 unit mass of the folic acid.
# (§2) 15 mice were in each group and numbered by a toe clipping method. The mice were intragastrically administrated once a day on the second day after grouping. One week after the pre-administration, male and female mice were caged at a ratio of […], a vaginal plug was observed every day from the next day, and a day when the vaginal plug was seen was recorded as day 0.5 of pregnancy. After 14 days of caging, the female mice stopped the administration, the male mice were removed, and the pregnant female mice were fed alone until litter.
# After the detection, thoracic and abdominal cavities of the mice were dissected, cardiac morphology and beating were observed under a stereoscopic microscope (SMZ168, Motic, Xiamen, Fujian, China), and photographs and video recordings were taken (Motic Image Plus 3.0, Motic, Xiamen, Fujian, China). The mice were sacrificed and the hearts, the livers, the kidneys and the lungs were harvested. The hearts and the livers of the neonatal mice were selected from each group and fixed with 4% paraformaldehyde, the fixed hearts and livers were embedded in paraffin, the embedded hearts and livers were sliced and the slices were stained with H&E. A half of the other tissues were immersed in RNA later for fixation and the other half were directly immersed in liquid nitrogen and frozen for a subsequent experiment.
# 1-day-old neonatal mice were sacrificed, the hearts were taken and fixed with 4% paraformaldehyde, the fixed hearts were embedded in paraffin, the embedded hearts were sliced, the slices were stained with H&E and pictures were taken under a normal microscope.
# heart of neonatal mice = conditions: mouse, in vivo
# Procedure: as §1, §2
# In addition, 4-5 mice were randomly selected from each group and the 6-day-old small animals were subjected to cardiac echocardiography (Vevo 2100 Imaging System, VisualSonics, Toronto, ON, Canada).
# [2] = Group 1: folic acid 4.555 mg/kg/d intraperitoneal
# [3] = Group 2: folic acid 2.2775 mg/kg/d intraperitoneal
# [4] = Group 3: folic acid 0.911 mg/kg/d intraperitoneal
# [5] = Group 4: folic acid 0.4555 mg/kg/d intragastric
# [6] = Group 5: folic acid 0.22775 mg/kg/d intragastric
# [7] = Group 6: folic acid 0.113875 mg/kg
# [8] = Group 6: folic acid 0.113875 mg/kg/d intragastric
smiles,measurement,setting,value
"Nc1nc2ncc(CNc3ccc(C(=O)N[C@@H](CCC(=O)O)C(=O)O)cc3)nc2c(=O)[nH]1 [FA, pteroylglutamic acid]",Atrioventricular defects/septal defects,fetal rat heart; [2],3
same,Development delay,fetal rat heart; [2],1
same,Malformation cases,fetal rat heart; [2],4
same,Malformation rate,fetal rat heart; [2],12.9%
same,Sparse myocardial trabeculae,fetal rat heart; [2],0
same,Atrioventricular defects/septal defects,fetal rat heart; [3],2
same,Development delay,fetal rat heart; [3],2
same,Malformation cases,fetal rat heart; [3],4
same,Malformation rate,fetal rat heart; [3],12.1%
same,Sparse myocardial trabeculae,fetal rat heart; [3],0
same,Atrioventricular defects/septal defects,fetal rat heart; [4],1
same,Development delay,fetal rat heart; [4],2
same,Malformation cases,fetal rat heart; [4],3
same,Malformation rate,fetal rat heart; [4],11.5%
same,Sparse myocardial trabeculae,fetal rat heart; [4],0
same,Atrioventricular defects/septal defects,fetal rat heart; [5],5
same,Development delay,fetal rat heart; [5],0
same,Malformation cases,fetal rat heart; [5],5
same,Malformation rate,fetal rat heart; [5],17.2%
same,Sparse myocardial trabeculae,fetal rat heart; [5],0
same,Atrioventricular defects/septal defects,fetal rat heart; [6],5
same,Development delay,fetal rat heart; [6],0
same,Malformation cases,fetal rat heart; [6],5
same,Malformation rate,fetal rat heart; [6],15.2%
same,Sparse myocardial trabeculae,fetal rat heart; [6],0
same,atrial walls defective (number of individuals),fetal rat heart; [7],1
same,ventricular septal defects (number of individuals),fetal rat heart; [7],3
same,Atrioventricular defects/septal defects,fetal rat heart; [8],4
same,Development delay,fetal rat heart; [8],1
same,Malformation cases,fetal rat heart; [8],4
same,Malformation rate,fetal rat heart; [8],9.5%
same,Sparse myocardial trabeculae,fetal rat heart; [8],0
same,expression of bmp2b gene,[1]; 24 hpf,decreased an expression of a bmp2b gene
same,expression of mef2c gene,[1]; 24 hpf,increased an expression of a mef2c gene
same,expression of ephb4 gene,[1]; 48 hpf,inhibited
same,expression of has2 gene,[1]; 48 hpf,inhibited
same,expression of mef2c gene,[1]; 48 hpf,inhibited
same,expression of vmhc gene,[1]; 48 hpf,increased an expression of a vmhc gene
same,heart slices (H&E) of 1-day-old neonatal mice,heart of fetal mice,A small block of a heart wall was defective
same,left ventricular internal diameter end-diastole (LVID(d)),heart of neonatal mice,significantly lower than those of other groups
same,left ventricular internal diameter end-systole (LVID(s)),heart of neonatal mice,significantly lower than those of other groups
